Measurements as given in ChEMBL document CHEMBL1133758, “Docking-based development of purine-like inhibitors of cyclin-dependent kinase-2” (J Med Chem, 2000).

Tests used:
[1] = biological target: Cyclin-dependent kinase 1 (Homo sapiens, UniProt P06493); assay: Inhibition of Cyclin-dependent kinase 1
[2] = biological target: Cyclin-dependent kinase 2 (Homo sapiens, UniProt P24941); assay: Inhibition of Cyclin-dependent kinase 2

Chain of Cyclin-dependent kinase 1 (P06493 whole entry): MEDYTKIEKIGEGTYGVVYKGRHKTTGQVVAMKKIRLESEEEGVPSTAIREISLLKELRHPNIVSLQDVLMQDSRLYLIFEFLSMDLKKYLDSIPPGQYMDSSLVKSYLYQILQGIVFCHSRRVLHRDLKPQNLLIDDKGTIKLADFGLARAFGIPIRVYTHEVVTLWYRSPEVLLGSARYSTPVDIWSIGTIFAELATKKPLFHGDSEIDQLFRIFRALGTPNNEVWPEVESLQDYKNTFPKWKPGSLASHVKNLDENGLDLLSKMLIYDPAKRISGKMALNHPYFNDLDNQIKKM

Compound | IC50 [1] | IC50 [2]
CC(C)n1cnc2c(NC3CCCC3)nc(NCCCO)nc21 | 2.4 µM | 0.9 µM
CC(C)n1cnc2c(NC34CC5CC(CC(C5)C3)C4)nc(NCCCO)nc21 | > 100 µM | > 100 µM
CC(C)n1cnc2c(N)nc(NCCCO)nc21 | 10 µM | 2.4 µM
CC(C)n1cnc2c(NCc3ccccc3)nc(NC[C@@H](C)O)nc21 | – | 0.2 µM
CC(C)C(CO)Nc1nc(NCc2cccc(O)c2)c2ncn(C(C)C)c2n1 (stereo unspecified) | – | 0.03 µM
CC(C)n1cnc2c(NCc3ccccc3)ncnc21 | 3.5 µM | 4.5 µM
CC(C)n1cnc2c(NCc3ccccc3)nc(NCCCO)nc21 [BOHEMINE] | – | 0.8 µM
